Reference: US7888386B2, “3-(phenoxyphenylmethyl)pyrrolidine compounds” (Theravance, Inc., priority 2008, dated 2011)

Tests used:
hSERT = biological target: T1, hSERT (Homo sapiens, UniProt P31645); experiment: hSERT binding assay (Assay 1); conditions: ratio of SERT Ki to NET Ki (binding)
T1 construct: expressed in transfected cells; host or cells: HEK-293 derived cell line, stably transfected; membrane preparation
Protocol: (§1) Membrane radioligand binding assays were used to measure competitive inhibition of labeled ligand (^3H-citalopram or ^3H-nisoxetine or ^3H-WIN35428) binding to membranes prepared from cells expressing the respective human recombinant transporter (hSERT or hNET or hDAT) in order to determine the pKi values of test compounds at the transporters.
(§2) Recombinant human embryonic kidney (HEK-293) derived cell lines stably transfected with hSERT or hNET, respectively, were grown in DMEM medium supplemented with 10% dialyzed FBS (for hSERT) or FBS (for hNET), 100 μg/ml penicillin, 100 μg/ml streptomycin, 2 mM L-glutamine and 250 μg/ml of the aminoglycoside antibiotic G418, in a 5% CO2 humidified incubator at 37° C. When cultures reached 80% confluence, the cells were washed thoroughly in PBS (without Ca^2+ and Mg^2+) and lifted with 5 mM EDTA in PBS. Cells were pelleted by centrifugation, resuspended in lysis buffer (10 mM Tris-HCl, pH 7.5 containing 1 mM EDTA), homogenized, pelleted by centrifugation, then resuspended in 50 mM Tris-HCl, pH 7.5 and 10% sucrose at 4° C. Protein concentration of the membrane suspension was determined using a Bio-Rad Bradford Protein Assay kit. Membranes were snap frozen and stored at −80° C. Chinese hamster ovary membranes expressing hDAT (CHO-DAT) were purchased from PerkinElmer and stored at −80° C.
(§3) Stock solutions (10 mM in DMSO) of test compound were prepared and serial dilutions made using Dilution Buffer (50 mM Tris-HCl, 120 mM NaCl, 5 mM KCl, pH 7.4, 0.1% BSA, 400 μM ascorbic acid).
(§4) Following a 60 minute incubation at 22° C. (or a period sufficient to reach equilibrium), the membranes were harvested by rapid filtration over a 96-well UniFilter GF/B plate, pretreated with 0.3% polyethyleneimine, and washed 6 times with 300 μl wash buffer (50 mM Tris-HCl, 0.9% NaCl, pH 7.5 at 4° C.). Plates were dried overnight at room temperature, ˜45 μl of MicroScint™-20 (Perkin Elmer) added and bound radioactivity quantitated via liquid scintillation spectroscopy. Competitive inhibition curves and saturation isotherms were analyzed using GraphPad Prism Software package (GraphPad Software, Inc., San Diego, Calif.). IC50 values were generated from concentration response curves using the Sigmoidal Dose Response (variable slope) algorithm in Prism GraphPad.

hNET = biological target: T2, hNET (Homo sapiens, UniProt P23975); experiment: hNET binding assay (Assay 1); conditions: hNET binding; read-out: NET pKi (converted)
T2 construct: expressed in transfected cells; host or cells: HEK-293 derived cell line, stably transfected; membrane preparation
Protocol: as §1, §2, §3, §4

T1 sequence (P31645 whole entry): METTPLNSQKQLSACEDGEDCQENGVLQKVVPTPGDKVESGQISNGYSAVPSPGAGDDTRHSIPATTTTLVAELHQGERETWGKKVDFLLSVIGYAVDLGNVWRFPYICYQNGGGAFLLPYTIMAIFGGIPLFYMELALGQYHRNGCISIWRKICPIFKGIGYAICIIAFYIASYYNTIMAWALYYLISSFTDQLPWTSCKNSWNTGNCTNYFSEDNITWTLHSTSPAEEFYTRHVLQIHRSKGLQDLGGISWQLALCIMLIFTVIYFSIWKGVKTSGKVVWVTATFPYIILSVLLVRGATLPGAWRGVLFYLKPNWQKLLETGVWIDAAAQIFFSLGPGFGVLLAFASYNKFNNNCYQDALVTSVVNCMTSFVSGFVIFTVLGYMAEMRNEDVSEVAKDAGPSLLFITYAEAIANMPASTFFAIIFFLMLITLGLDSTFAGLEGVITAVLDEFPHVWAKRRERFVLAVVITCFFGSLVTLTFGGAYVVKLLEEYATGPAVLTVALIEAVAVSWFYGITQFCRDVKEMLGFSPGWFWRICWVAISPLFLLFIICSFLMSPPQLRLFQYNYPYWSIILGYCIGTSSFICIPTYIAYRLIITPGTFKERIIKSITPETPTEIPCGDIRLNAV
T2 sequence (P23975 whole entry): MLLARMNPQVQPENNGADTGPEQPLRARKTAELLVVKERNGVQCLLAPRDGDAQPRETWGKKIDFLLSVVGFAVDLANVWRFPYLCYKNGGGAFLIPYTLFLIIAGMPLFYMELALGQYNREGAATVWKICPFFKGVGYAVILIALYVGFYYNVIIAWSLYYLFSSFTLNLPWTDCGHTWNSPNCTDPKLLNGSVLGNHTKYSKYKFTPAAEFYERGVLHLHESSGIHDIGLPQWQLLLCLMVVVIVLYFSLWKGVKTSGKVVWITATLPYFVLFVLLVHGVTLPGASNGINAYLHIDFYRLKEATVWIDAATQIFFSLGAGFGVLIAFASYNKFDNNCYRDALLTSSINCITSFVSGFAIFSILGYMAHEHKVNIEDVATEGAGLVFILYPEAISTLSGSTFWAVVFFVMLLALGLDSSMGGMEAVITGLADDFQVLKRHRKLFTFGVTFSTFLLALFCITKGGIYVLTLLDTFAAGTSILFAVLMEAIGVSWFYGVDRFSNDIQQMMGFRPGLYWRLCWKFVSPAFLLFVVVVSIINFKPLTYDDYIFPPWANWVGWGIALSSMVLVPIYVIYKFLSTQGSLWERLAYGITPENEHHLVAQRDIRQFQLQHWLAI

| SMILES | SERT Ki/NET Ki (hSERT) | Ki (hNET) [nM] |
| --- | --- | --- |
| Cc1cc(F)cc(C(Oc2cc(Cl)cc(Cl)c2)C2CCNC2)c1 (stereo not shown) [35-19] | 0.4 | 6.31 |
| Fc1ccc(O[C@@H](c2ccccc2)[C@H]2CCNC2)c(F)c1F [36-1] | 0.8 | 6.31 |
| Fc1c(Cl)ccc(O[C@@H](c2ccccc2)[C@H]2CCNC2)c1F [36-3] | 0.1 | 6.31 |
| Cc1ccc(OC(c2ccccc2)C2CCNC2)c(F)c1F (stereo not shown) [36-5] | 0.5 | 1.26 |
| Cc1c(F)ccc(OC(c2ccccc2)C2CCNC2)c1F (stereo not shown) [36-7] | 0.3 | 5.01 |
| Fc1c(Cl)ccc(OC(c2ccccc2)C2CCNC2)c1Cl (stereo not shown) [36-10] | 0.1 | 3.16 |
| Fc1cc(F)cc(C(Oc2ccc(F)c(F)c2F)C2CCNC2)c1 (stereo not shown) [37-1] | 4 | 5.01 |
| Fc1cc(F)c(F)c(O[C@H](c2ccccc2)[C@@H]2CCNC2)c1 [38-1] | 0.2 | 5.01 |
| Fc1cc(F)c(F)c(OC(c2ccccc2)C2CCNC2)c1 (stereo not shown) [38-2] | 10 | 1.58 |
| Fc1cc(F)c(F)c(OC(c2ccccc2Cl)C2CCNC2)c1 (stereo not shown) [39-2] | 0.6 | 6.31 |
| Fc1cc(F)cc(C(Oc2cc(F)cc(F)c2F)C2CCNC2)c1 (stereo not shown) [39-3] | 0.4 | 6.31 |
| Fc1cc(F)cc(C(Oc2cc(Cl)cc(Cl)c2Cl)C2CCNC2)c1 (stereo not shown) [39-5] | 0.2 | 3.16 |
| COc1ccc(F)c(OC(c2ccccc2)C2CCNC2)c1F (stereo not shown) [40-4] | 6.3 | 0.631 |
| COc1ccc(F)c(F)c1O[C@H](c1ccccc1)[C@@H]1CCNC1 [40-8] | 1 | 1 |
| Fc1ccc(Cl)c(Cl)c1OC(c1ccccc1)C1CCNC1 (stereo not shown) [40-12] | 1.3 | 0.251 |
| Fc1ccc(Cl)c(Cl)c1OC(c1ccccc1)C1CCNC1 (stereo not shown) [40-13] | 0.3 | 0.2 |

| SMILES | SERT Ki/NET Ki (hSERT) | Ki (hNET) [nM] |
| --- | --- | --- |
| Fc1ccc(Cl)c(F)c1OC(c1ccccc1)C1CCNC1 (stereo not shown) [40-14] | 0.4 | 0.501 |
| Fc1ccc(Cl)c(F)c1OC(c1ccccc1)C1CCNC1 (stereo not shown) [40-15] | 1.3 | 0.251 |
| Fc1ccc(Cl)c(F)c1O[C@@H](c1ccccc1)[C@H]1CCNC1 [40-16] | 10 | 0.158 |
| COc1ccc(F)c(Cl)c1O[C@@H](c1ccccc1)[C@H]1CCNC1 [40-22] | 13 | 0.631 |
| COc1ccc(F)c(Cl)c1OC(c1ccccc1)C1CCNC1 (stereo not shown) [40-23] | 0.1 | 3.16 |
| Cc1ccc(F)c(O[C@H](c2ccccc2)[C@@H]2CCNC2)c1F [40-24] | 0.4 | 1.58 |
| Cc1ccc(F)c(OC(c2ccccc2)C2CCNC2)c1F (stereo not shown) [40-25] | 2 | 0.501 |
| Cc1ccc(F)c(O[C@@H](c2ccccc2)[C@H]2CCNC2)c1F [40-26] | 20 | 0.251 |
| Cc1ccc(Cl)c(OC(c2ccccc2)C2CCNC2)c1F (stereo not shown) [40-27] | 5 | 0.251 |
| Cc1ccc(Cl)c(O[C@H](c2ccccc2)[C@@H]2CCNC2)c1F [40-28] | 0.4 | 0.794 |
| Cc1ccc(F)c(O[C@H](c2ccccc2)[C@@H]2CCNC2)c1Cl [40-29] | 0.4 | 0.2 |
| Cc1ccc(F)c(O[C@@H](c2ccccc2)[C@@H]2CCNC2)c1Cl [40-30] | 0.1 | 5.01 |
| COc1ccc(F)c(OC(c2ccccc2)C2CCNC2)c1Cl (stereo not shown) [40-35] | 0.3 | 0.398 |
| Fc1cc(F)cc([C@H](Oc2c(F)ccc(F)c2F)[C@H]2CCNC2)c1 [41-1] | 100 | 0.251 |
| Fc1cc(F)cc(C(Oc2c(F)ccc(F)c2F)C2CCNC2)c1 (stereo not shown) [41-2] | 1 | 2.51 |
| COc1ccc(F)c(F)c1OC(c1cc(F)cc(F)c1)C1CCNC1 (stereo not shown) [41-4] | 1 | 1 |
